Results: patent publication US12220394B2, “Pharmaceutical composition for prevention or treatment of kidney damage” (National University Corporation Kanazawa University, priority 2018, dated 2025)

Legend:
[1] = tested on: macrophages in kidney tissue; test: F4/80 immunostaining of kidney tissue after renal ischemia reperfusion; assay type: in vivo, C57BL/6J mice
Experimental: The animals were reared with free access to water and feed under conditions with an SPF environment and 12-hour light-dark cycling. C57BL/6J mice were purchased from Clea Japan, Inc. (Osaka). Male 12- to 16-week-old mice were treated by renal ischemia reperfusion (hereunder also referred to as “I/R”). The renal pedicles were clamped with a non-traumatic clip (Natsume Seisakusho, Tokyo) under pentobarbital anesthesia to elicit ischemia. The clips were released after 40 minutes. The body temperature was kept at 37° C. during treatment. The mice were reared with free access to water (control) or 20 mM D-alanine-containing water, prior to 14 days after IR treatment. On day 10 after IR treatment, the kidney tissues were sampled. After ischemia reperfusion, the kidney tissues harvested on day 10 were fixed with 10% neutral buffered formalin and supplied for immunostaining using F4/80 antibody (Invitrogen, catalog #: MF48,000). F4/80 is a protein expressed specifically by macrophages, and it allows visualization of macrophages in kidney tissue. In the water-administered control group, cells stained with F4/80 were found accumulated in kidney tissue ([…]), but in the D-alanine-administered groups (20 mM and 80 mM) such cellular accumulation was minimal (FIG. 3(A)). The proportion of stained region in each group was measured (FIG. 3(B)).

[2] = tested on: fibrotic tissue in kidney; test: AZAN staining of kidney tissue after renal ischemia reperfusion; assay type: in vivo, C57BL/6J mice
Experimental: The animals were reared with free access to water and feed under conditions with an SPF environment and 12-hour light-dark cycling. C57BL/6J mice were purchased from Clea Japan, Inc. (Osaka). Male 12- to 16-week-old mice were treated by renal ischemia reperfusion (hereunder also referred to as “I/R”). The renal pedicles were clamped with a non-traumatic clip (Natsume Seisakusho, Tokyo) under pentobarbital anesthesia to elicit ischemia. The clips were released after 40 minutes. The body temperature was kept at 37° C. during treatment. The mice were reared with free access to water (control) or 20 mM D-alanine-containing water, prior to 14 days after IR treatment. On day 10 after IR treatment, the kidney tissues were sampled. After ischemia reperfusion, the kidney tissues sampled on day 10 were fixed with 10% neutral buffered formalin and provided for AZAN staining. In AZAN staining, fibrotic tissue is stained with aniline blue. […] The proportion of stained region in each group was measured (FIG. 4(B)).

[3] = cited from earlier work
[4] = tested on: kidney tissue after ischemia reperfusion; test: PAS staining and ATN score of kidney tissue sections after renal ischemia reperfusion; assay type: in vivo, C57BL/6J mice; details: 10 days after ischemia reperfusion
Experimental: The animals were reared with free access to water and feed under conditions with an SPF environment and 12-hour light-dark cycling. C57BL/6J mice were purchased from Clea Japan, Inc. (Osaka). Male 12- to 16-week-old mice were treated by renal ischemia reperfusion (hereunder also referred to as “I/R”). The renal pedicles were clamped with a non-traumatic clip (Natsume Seisakusho, Tokyo) under pentobarbital anesthesia to elicit ischemia. The clips were released after 40 minutes. The body temperature was kept at 37° C. during treatment. […] On day 10 after IR treatment, the kidney tissues were sampled. After ischemia reperfusion, the kidneys sampled on day 10 were fixed with 10% neutral buffered formalin and embedded in paraffin, and then stained with periodic acid-Schiff (PAS staining). The stained slices were photographed with a bright-field microscope (FIG. 1). Debris stained with PAS (skin boundary) or brush border (skin boundary and cortical region) were quantitatively evaluated in at least 10 different locations. The debris, renal tubular dilation, brush border damage, and renal tubule necrosis were evaluated by ATN score (0: none, 1: mild, 2: moderate, 3: severe). Sample evaluation was carried out blind.

[5] = 10 days after ischemia reperfusion, D-alanine group vs water group
[6] = D-alanine group compared with water group

C[C@@H](N)C(=O)O [D-alanine]
F4/80 staining intensity of kidney tissue section (accumulation of macrophages and monocytes) [1, 5]: decreased in a dose-dependent manner
accumulation of cells stained with F4/80 in kidney tissue ([1]; after ischemia reperfusion, D-alanine 20 mM and 80 mM vs water-administered control): minimal
AZAN staining intensity of kidney tissue section (fibrosis) [2, 5]: decreased in a dose-dependent manner
aniline blue-stained regions (fibrotic tissue) in kidney tissue ([2]; day 10 after ischemia reperfusion, D-alanine 20 mM and 80 mM vs water-administered control): reduced in a dose-dependent manner
adverse events when used as a food ([3]; ingestion on the order of 10 g): No adverse events have been reported
toxicity via oral administration ([3]; oral administration): no reported toxicity
PAS staining intensity of kidney tissue section (accumulation of inflammatory cells such as neutrophils and eosinophils) ([4]; D-alanine 20 mM and 80 mM in drinking water vs water group): decreased in a dose-dependent manner
grade of brush border region in kidney tissue section (ATN score) [4, 6]: improved in a dose-dependent manner
grade of intraluminal debris in kidney tissue section (ATN score) [4, 6]: improved in a dose-dependent manner
grade of necrosis in kidney tissue section (ATN score) [4, 6]: improved in a dose-dependent manner
